Article PMC9604400, “Synthesis, Anticancer and Antitubercular Properties of New Chalcones and Their Nitrogen-Containing Five-Membered Heterocyclic Hybrids Bearing Sulfonamide Moiety” (International Journal of Molecular Sciences, 2022)
In brackets after ≈: the same amount, converted by molar mass.

Assays:
OVCAR-5 = assay: NCI-60 screen (SRB), ovarian cancer; conditions: Homo sapiens; for IC50: OVCAR-5; for CC50: OVCAR-5, read-out: LC50
[1] = system: Mycobacterium tuberculosis H37Rv (ATCC 27294); assay: microbe, parasite or virus in culture; assay type: cell-based; conditions: Mycobacterium tuberculosis; agar dilution SPOTi; read-out: MIC Against M. tuberculosis H37Rv
DU-145 = assay: NCI-60 screen (SRB), prostate cancer; conditions: Homo sapiens; for IC50: DU-145; for CC50: DU-145, read-out: LC50
leukemia cell lines = assay: NCI-60 screen (SRB), leukemia panel; assay type: cell-based; conditions: Homo sapiens; for inhibition at 10 µM: leukemia panel, single dose 10 μM, read-out: GI (growth inhibition), range over panel
CCRF-CEM = assay: NCI-60 screen (SRB), leukemia; conditions: Homo sapiens; for CC50: read-out: LC50
SW-620 = assay: NCI-60 screen (SRB), colon cancer; conditions: for IC50 / CC50: Homo sapiens; for IC50: SW-620; for CC50: SW-620, read-out: LC50
renal cancer cell lines = assay: NCI-60 screen (SRB), renal cancer panel; assay type: cell-based; conditions: Homo sapiens, single dose 10 μM, read-out: GI (growth inhibition), range over panel
SNB-75 = assay: NCI-60 screen (SRB), CNS cancer; conditions: Homo sapiens; for IC50: SNB-75; for CC50: SNB-75, read-out: LC50
A498 = assay: NCI-60 screen (SRB), renal cancer; conditions: Homo sapiens; for IC50: A498; for CC50: A498, read-out: LC50
HL-60(TB) = assay: cells; conditions: Homo sapiens; for IC50: HL-60; for CC50: HL-60, read-out: LC50
Vero cell line = assay: Cytotoxicity on Vero cell line (MTT); assay type: cell-based, African green monkey; conditions: Vero IC50 / MIC M. tuberculosis H37Rv
[2] = Cytotoxicity on Vero cell line (MTT); assay type: cell-based, African green monkey; conditions: African green monkey, Vero cells (African green monkey kidney, ATCC CCL-81); MTT, 24 h
[3] = system: Mycobacterium bovis BCG (ATCC 35734); assay: microbe, parasite or virus in culture; assay type: cell-based; conditions: Mycobacterium tuberculosis variant bovis BCG, read-out: MIC Against M. bovis BCG
HOP-92 = assay: NCI-60 screen (SRB), non-small cell lung cancer; conditions: Homo sapiens; for IC50: HOP-92; for CC50: HOP-92, read-out: LC50
SF-295 = assay: NCI-60 screen (SRB), CNS cancer; conditions: Homo sapiens; for IC50: SF-295; for CC50: SF-295, read-out: LC50
HCT-116 = assay: NCI-60 screen (SRB), colon cancer; conditions: for IC50 / CC50: Homo sapiens; for IC50: HCT-116; for CC50: HCT-116, read-out: LC50
NCI/ADR-RES = assay: NCI-60 screen (SRB), ovarian cancer; conditions: Homo sapiens; for CC50: read-out: LC50

Compound: COc1cc(OC)c(S(N)(=O)=O)cc1C(=O)C=Cc1ccccc1 [Compound 17a, 5-Cinnamoyl-2,4-dimethoxybenzenesulfonamide]
- IC50 (OVCAR-5): 13.2 µM
- CC50 (OVCAR-5): 53.7 µM
- MIC [1]: 29 µM (≈ 10.1 µg/mL)
- IC50 (DU-145): 1.88 µM
- CC50 (DU-145): 38.1 µM
- inhibition at 10 µM (leukemia cell lines): 70.8 to 94.8%
- IC50 (CCRF-CEM): 3.93 µM
- CC50 (CCRF-CEM): > 100 µM
- IC50 (SW-620): 2.68 µM
- CC50 (SW-620): 48.5 µM
- inhibition at 10 µM (renal cancer cell lines): 66.2 to 100%
- IC50 (SNB-75): 2.08 µM
- CC50 (SNB-75): 26.9 µM
- IC50 (A498): 16.9 µM
- CC50 (A498): 55.8 µM
- IC50 (HL-60(TB)): 2.27 µM
- CC50 (HL-60(TB)): > 100 µM
- Selectivity Index (SI) (SI = IC50/MIC) (Vero cell line): 0.04
- IC50 at 24 h [2]: 1.06 ± 1.21 µM
- MIC [3]: > 29 µM
- IC50 (HOP-92): 2.06 µM
- CC50 (HOP-92): 37.1 µM
- IC50 (SF-295): 15.7 µM
- CC50 (SF-295): 58.2 µM
- IC50 (HCT-116): 1.49 µM
- CC50 (HCT-116): 67.2 µM
- IC50 (NCI/ADR-RES): 15.5 µM
- CC50 (NCI/ADR-RES): > 100 µM

Compound: COc1cc(OC)c(S(N)(=O)=O)cc1C(=O)/C=C/c1ccc(Cl)cc1 [Compound 17b, (E)-5-(3-(4-Chlorophenyl)acryloyl)-2,4-dimethoxybenzenesulfonamide]
- IC50 (OVCAR-5): 3.18 µM
- CC50 (OVCAR-5): 39 µM
- IC50 (DU-145): 3.44 µM
- CC50 (DU-145): 42.2 µM
- inhibition at 10 µM (leukemia cell lines): 92.8 to 100%
- IC50 (CCRF-CEM): 1.52 µM
- CC50 (CCRF-CEM): > 100 µM
- IC50 (SW-620): 2.49 µM
- CC50 (SW-620): 95.9 µM
- lethality (SW-620; SW-620, single dose 10 μM): 39.92%
- inhibition at 10 µM (renal cancer cell lines): 78.5 to 100%
- IC50 (SNB-75): 1.5 µM
- CC50 (SNB-75): 6.95 µM
- IC50 (A498): 18.6 µM
- CC50 (A498): 62.2 µM
- IC50 (HL-60(TB)): 1.91 µM
- CC50 (HL-60(TB)): > 100 µM
- IC50 (HOP-92): 1.46 µM
- CC50 (HOP-92): 24.9 µM
- IC50 (SF-295): 3.88 µM
- CC50 (SF-295): 57.6 µM
- IC50 (HCT-116): 0.75 µM
- CC50 (HCT-116): 5.13 µM
- IC50 (NCI/ADR-RES): 3.97 µM
- CC50 (NCI/ADR-RES): > 100 µM

Compound: COc1cc(OC)c(S(N)(=O)=O)cc1C(=O)/C=C/c1ccc(C)cc1 [Compound 17c, (E)-2,4-Dimethoxy-5-(3-(p-tolyl)acryloyl)benzenesulfonamide]
- IC50 (OVCAR-5): 2.57 µM
- CC50 (OVCAR-5): 27.2 µM
- IC50 (DU-145): 4.23 µM
- CC50 (DU-145): 65.1 µM
- inhibition at 10 µM (leukemia cell lines): 78.9 to 94.3%
- IC50 (CCRF-CEM): 3.99 µM
- CC50 (CCRF-CEM): > 100 µM
- IC50 (SW-620): 3.43 µM
- CC50 (SW-620): 75.8 µM
- IC50 (SNB-75): 1.84 µM
- CC50 (SNB-75): 18.2 µM
- IC50 (A498): 16.2 µM
- CC50 (A498): 58.1 µM
- IC50 (HL-60(TB)): 2.52 µM
- CC50 (HL-60(TB)): > 100 µM
- IC50 (HOP-92): 2.3 µM
- CC50 (HOP-92): 35.4 µM
- IC50 (SF-295): 3.89 µM
- CC50 (SF-295): 43.2 µM
- IC50 (HCT-116): 30.6 µM
- CC50 (HCT-116): 58 µM
- IC50 (NCI/ADR-RES): 5.25 µM
- CC50 (NCI/ADR-RES): > 100 µM

Compound: COc1cc(OC)c(S(=O)(=O)N(CCCl)CCCl)cc1C(=O)/C=C/c1cc(OC)c(OC)c(OC)c1 [Compound 18e, (E)-N,N-bis(2-Chloroethyl)-2,4-dimethoxy-5-(3-(3,4,5-trimethoxyphenyl)acryloyl)benzenesulfonamide]
- IC50 (OVCAR-5): 6.8 µM
- CC50 (OVCAR-5): > 100 µM
- IC50 (DU-145): 14.8 µM
- CC50 (DU-145): > 100 µM
- IC50 (leukemia cell lines; read-out: IC50 (GI50), range over leukemia panel): 0.99 to 2.52 µM
- IC50 (CCRF-CEM): 1.69 µM
- CC50 (CCRF-CEM): > 100 µM
- IC50 (SW-620): 25.1 µM
- CC50 (SW-620): > 100 µM
- IC50 (SNB-75): 8.53 µM
- CC50 (SNB-75): > 100 µM
- IC50 (A498): 7.23 µM
- CC50 (A498): 65.5 µM
- IC50 (HL-60(TB)): 1.6 µM
- CC50 (HL-60(TB)): > 100 µM
- IC50 (HOP-92): > 100 µM
- CC50 (HOP-92): > 100 µM
- IC50 (SF-295): 35.4 µM
- CC50 (SF-295): > 100 µM
- lethality (HCT-116; HCT-116, single dose 10 μM): 87.74%
- IC50 (HCT-116): 2.82 µM
- CC50 (HCT-116): 6.47 µM
- IC50 (NCI/ADR-RES): > 100 µM
- CC50 (NCI/ADR-RES): > 100 µM
